Source: PMC3377626, “Role of mprF1 and mprF2 in the Pathogenicity of Enterococcus faecalis” (PLoS ONE, 2012)
≈ marks a conversion by molar mass, not a printed value. No end group written: not given here.

Assays:
E. faecalis 12030 [1] = experiment: MIC by serial dilution (modified NCCLS method); format: cell-based, Enterococcus faecalis; settings: wild type strain; serial dilution in TSB broth, 96-well plates, approx. 1×10^6 CFU/ml, overnight at 37°C; lowest concentration at which visible growth was inhibited
Description: (§1) The minimal inhibitory concentration (MIC) of polymyxin B, nisin, HBD-3, and colistin was determined in serial dilution with a modified NCCLS method. Experiments were performed in TSB broth in 96-well microtiter tissue culture plates (Greiner). Wells were inoculated with 50-µl volumes of a suspension containing approximately 1×10^6 CFU/ml of the test organism, and concentrations were confirmed by enumeration of CFUs after serial dilution. Microtiter plates were incubated overnight at 37°C, and the MICs were defined as the lowest concentration at which visible growth was inhibited. The MIC against daptomycin was determined by E-test according to standard laboratory procedures.

E. faecalis 12030 ΔmprF2 = experiment: MIC by serial dilution (modified NCCLS method); format: cell-based, Enterococcus faecalis; settings: for Minimal inhibotory concentration: mprF2 (EF_1027) deletion mutant, serial dilution in TSB broth, 96-well plates, approx. 1×10^6 CFU/ml, overnight at 37°C, lowest concentration at which visible growth was inhibited; for fold decreased MIC of 12030ΔmprF2 compared to the wild-type strain: ratio of MIC of wild type E. faecalis 12030 to MIC of 12030ΔmprF2, from Table 1
Description: as §1

E. faecalis 12030 [2] = experiment: MIC by E-test; format: cell-based, Enterococcus faecalis; settings: wild-type strain
Description: as §1

12030ΔmprF2 = experiment: MIC by E-test; format: cell-based, Enterococcus faecalis; settings: mprF2 deletion mutant
Description: as §1

12030ΔmprF1 = experiment: MIC by E-test; format: cell-based, Enterococcus faecalis; settings: mprF1 deletion mutant
Description: as §1

[3] = system: 12030ΔmprF2 CM (knock-in); experiment: MIC by E-test; format: cell-based, Enterococcus faecalis; settings: mprF2 mutant complemented by knock-in
Description: as §1

S. aureus = S. aureus MprF mutant versus wild type; cited from earlier work
Description: In contrast to S. aureus, however, there was no effect on ...

E. faecalis 12030 ΔmprF1 = experiment: MIC by serial dilution (modified NCCLS method); format: cell-based, Enterococcus faecalis; settings: mprF1 (EF_0031) deletion mutant; serial dilution in TSB broth, 96-well plates, approx. 1×10^6 CFU/ml, overnight at 37°C; lowest concentration at which visible growth was inhibited
Description: as §1

[4] = system: E. faecalis 12030 ΔmprF2 CM; experiment: MIC by serial dilution (modified NCCLS method); format: cell-based, Enterococcus faecalis; settings: mprF2 mutant complemented by knock-in of mprF2; serial dilution in TSB broth, 96-well plates, approx. 1×10^6 CFU/ml, overnight at 37°C; lowest concentration at which visible growth was inhibited
Description: as §1

Compound	Minimal inhibotory concentration (E. faecalis 12030 [1])	Minimal inhibotory concentration (E. faecalis 12030 ΔmprF2)	fold decreased MIC of 12030ΔmprF2 compared to the wild-type strain (E. faecalis 12030 ΔmprF2)	MIC (E. faecalis 12030 [2])	MIC (12030ΔmprF2)	MIC (12030ΔmprF1)	MIC [3]	fold drop of the MIC on mutation of MprF in S. aureus (S. aureus)	Minimal inhibotory concentration (E. faecalis 12030 ΔmprF1)	Minimal inhibotory concentration [4]
colistin	4096 µg/mL	2048 µg/mL	2 fold							
HBD-3: cationic antimicrobial peptide (CAMP) (GIINTLQKYYCRVRGGRCAVLSCLPKEEQIGKCSTRGRKCCRRKK; ends and bridges not checked; cysteine pairing not given here; UniProt P81534 23-67, looked up)	>512 µg/mL	128 µg/mL	> 4 fold							
CCCCCCCCCC(=O)N[C@@H](Cc1c[nH]c2ccccc12)C(=O)N[C@H](CC(N)=O)C(=O)N[C@@H](CC(=O)O)C(=O)N[C@@H]1C(=O)NCC(=O)N[C@@H](CCCN)C(=O)N[C@@H](CC(=O)O)C(=O)N[C@H](C)C(=O)N[C@@H](CC(=O)O)C(=O)NCC(=O)N[C@H](CO)C(=O)N[C@@H]([C@H](C)CC(=O)O)C(=O)N[C@@H](CC(=O)c2ccccc2N)C(=O)O[C@@H]1C [daptomycin]				0.19 mg/L (≈ 0.117 µM)	0.25 mg/L (≈ 0.154 µM)	0.25 mg/L (≈ 0.154 µM)	0.25 mg/L (≈ 0.154 µM)			
polymyxin B	1024 µg/mL	256 µg/mL	4 fold							
nisin (ITSISLCTPGCKTGALMGCNMKTATCHCSIHVSK; cysteine pairing not given here; also: lantibiotic nisin-A, lanthionine/dehydro residues not placed; UniProt P13068 24-57, looked up) [cationic antimicrobial peptide (CAMP)]	4 µg/mL	1 µg/mL	4 fold					28 fold	4 µg/mL	4 µg/mL
